Measurements as given in paper PMC12067145 (ACS Medicinal Chemistry Letters, 2025).

Columns and labels:
Interleukin IL-1 R1 = Interleukin IL-1 R1 (Homo sapiens, UniProt P14778); test: Eurofins lead profiling screen (radioligand binding)
Glutamate, NMDA, Agonism = test: as above; parameters: species or system Rat
hERG potassium channel = hERG potassium channel (Homo sapiens, UniProt Q12809); test: as above
Histamine H1 = Histamine H1 (Homo sapiens, UniProt P35367); test: as above
Histamine H3 = Histamine H3 (Homo sapiens, UniProt Q9Y5N1); test: as above
Potassium Channel [KATP] = Potassium Channel [KATP] (Cricetus cricetus, UniProt Q09427); test: as above; parameters: species or system Hamster
Muscarinic M3 = Muscarinic M3 (Homo sapiens, UniProt P20309); test: as above
Adrenergic α1A = Adrenergic α1A (Rattus norvegicus, UniProt P43140); test: as above
Thyroid Hormone = test: as above; parameters: species or system Rat
[1] = molecular target: Calcium Channel L-Type, Dihydropyridine (Rattus norvegicus, UniProt P22002); test: as above
Dopamine D3 = Dopamine D3 (Homo sapiens, UniProt P35462); test: as above
Dopamine D1 = Dopamine D1 (Homo sapiens, UniProt P21728); test: as above
Adenosine A2A = Adenosine A2A (Homo sapiens, UniProt P29274); test: as above
Opiate δ1 (OP1, DOP) = Opiate δ1 (OP1, DOP) (Homo sapiens, UniProt P41143); test: as above
Adrenergic β2 = Adrenergic β2 (Homo sapiens, UniProt P07550); test: as above
Cannabinoid CB1 = Cannabinoid CB1 (Homo sapiens, UniProt P21554); test: as above
Calcium Channel N-Type = Calcium Channel N-Type (Rattus norvegicus, UniProt Q02294); test: as above
male CD-1 mice = test: MK-801 challenged novel object recognition (NOR) task; assay type: in vivo, mouse; settings: IP, 3.5 h prior to MK-801 (0.2 mg/kg IP)
Protocol: A plastic chamber (W 345×L 400×H 180 mm) was used for the novel object recognition test. The light intensity in the test room was maintained at approximately 20 lux. The novel object recognition test was conducted over two days. On the first day, mice were placed in the chamber without any objects and allowed to explore freely for 10 minutes to acclimate to the experimental environment. […] Thirty minutes after the MK-801 challenge, the acquisition trial

[2] = Brain homogenate binding (rat); assay type: in vitro ADME
Protocol: (§1) 0.3% DMSO - ΔRatio of 1 µM control compound)x100
In vitro Plasma protein binding and Brain homogenate binding: Determination of fraction unbound (f u) in plasma was conducted in vitro via equilibrium dialysis using HTDialysis (HTD) membrane plates. The top half of the plate was filled with 100 uL of Dubelco’s Phosphate Buffered Saline, pH 7.4 (DPBS). Compounds were diluted into plasma from each species (5 µM final concentration), which was aliquoted in triplicate to the ‘bottom half’ of the prepared HTD plate wells. The HTD plate was sealed and incubated for 6 hours at 37 °C. […]
The unbound fraction (f u) was calculated following the equation below, and mean values for each species were calculated from 3 replicates. […] Fraction unbound for both plasma and brain samples was determined using Equation 4. […]
The diluted fraction unbound (fu2) in brain was calculated in the same manner by using brain homogenate rather than plasma. Undiluted fraction unbound for the brain was calculated using […]
were incubated in 100 mM potassium phosphate pH 7.4 buffer with 3 mM MgCl2 at 37 °C with constant shaking. […] The in vitro half-life (T 1/2, min, Eq. 1), intrinsic clearance (CLint, mL/min/kg, Eq. 2), and subsequent predicted hepatic clearance (CLhep, mL/min/kg, Eq. 3) were determined employing the following equations: […]

[3] = Plasma protein binding (mouse); assay type: in vitro ADME; settings: pH 7.4, read-out: PPB mouse (converted)
Protocol: as §1
(§2) In vitro Plasma protein binding and Brain homogenate binding: Determination of fraction unbound (f u) in plasma was conducted in vitro via equilibrium dialysis using HTDialysis (HTD) membrane plates. The top half of the plate was filled with 100 uL of Dubelco’s Phosphate Buffered Saline, pH 7.4 (DPBS). Compounds were diluted into plasma from each species (5 µM final concentration), which was aliquoted in triplicate to the ‘bottom half’ of the prepared HTD plate wells. The HTD plate was sealed and incubated for 6 hours at 37 °C. Following incubation, each well (both top and bottom halves) were transferred (20 µL) to the corresponding wells of a 96-shallow-well (V-bottom) plate. The daughter plates were then matrix-matched (DPBS side wells received equal volume of plasma, and plasma side wells received equal volume of DPBS), and extraction solution (120 µL; acetonitrile containing 50 nM carbamazepine as IS) was added to all wells of both daughter plates to precipitate protein and extract test article. The plates were then sealed and centrifuged (3500 rcf) for 10 minutes at ambient temperature. Supernatant (60 µL) from each well of the daughter plates was then transferred to the corresponding wells of new daughter plates (96-shallow-well, V bottom) containing water (Milli-Q, 60 µL/well), and the plates were sealed in preparation for LC-MS/MS analysis (see LC-MS/MS analysis method below).
The unbound fraction (f u) was calculated following the equation below, and mean values for each species were calculated from 3 replicates. A similar approach was used to determine the degree of brain homogenate binding, which employed the same methodology and procedure with the following modifications: 1) a final compound concentration of 1 μM was used, 2) naïve rat brains were homogenized in DPBS (1:3 composition of brain: DPBS, w/w) using a Mini-Bead Beater™ machine in order to obtain brain homogenate, which was then treated in the same manner as the plasma samples in the previously described plasma protein binding assay. Fraction unbound for both plasma and brain samples was determined using Equation 4.

Aqueous solubility = assay type: physicochemical
[4] = Plasma protein binding (rat); assay type: in vitro ADME; settings: pH 7.4, read-out: PPB rat
Protocol: as §1
as §2, with “Supernatant (60 µL) from each well of the daughter plates was then transferred to the corresponding wells of new daughter plates (96-shallow-well, V bottom) containing water (Milli-Q, 60 µL/well), and the plates were sealed in preparation for LC-MS/MS analysis (see LC-MS/MS analysis method below).” left out
The unbound fraction (f u) was calculated following the equation below, and mean values for each species were calculated from 3 replicates. […] Fraction unbound for both plasma and brain samples was determined using Equation 4.

Nav1.5 = Nav1.5 (Homo sapiens, UniProt Q14524); test: Cardiac ion channel MPC selectivity panel; assay type: cell-based
Cav1.2 = Cav1.2 (Homo sapiens, UniProt Q13936); test: Cardiac ion channel MPC selectivity panel; assay type: cell-based

Potassium Channel [KATP], sequence (Q09427 whole entry): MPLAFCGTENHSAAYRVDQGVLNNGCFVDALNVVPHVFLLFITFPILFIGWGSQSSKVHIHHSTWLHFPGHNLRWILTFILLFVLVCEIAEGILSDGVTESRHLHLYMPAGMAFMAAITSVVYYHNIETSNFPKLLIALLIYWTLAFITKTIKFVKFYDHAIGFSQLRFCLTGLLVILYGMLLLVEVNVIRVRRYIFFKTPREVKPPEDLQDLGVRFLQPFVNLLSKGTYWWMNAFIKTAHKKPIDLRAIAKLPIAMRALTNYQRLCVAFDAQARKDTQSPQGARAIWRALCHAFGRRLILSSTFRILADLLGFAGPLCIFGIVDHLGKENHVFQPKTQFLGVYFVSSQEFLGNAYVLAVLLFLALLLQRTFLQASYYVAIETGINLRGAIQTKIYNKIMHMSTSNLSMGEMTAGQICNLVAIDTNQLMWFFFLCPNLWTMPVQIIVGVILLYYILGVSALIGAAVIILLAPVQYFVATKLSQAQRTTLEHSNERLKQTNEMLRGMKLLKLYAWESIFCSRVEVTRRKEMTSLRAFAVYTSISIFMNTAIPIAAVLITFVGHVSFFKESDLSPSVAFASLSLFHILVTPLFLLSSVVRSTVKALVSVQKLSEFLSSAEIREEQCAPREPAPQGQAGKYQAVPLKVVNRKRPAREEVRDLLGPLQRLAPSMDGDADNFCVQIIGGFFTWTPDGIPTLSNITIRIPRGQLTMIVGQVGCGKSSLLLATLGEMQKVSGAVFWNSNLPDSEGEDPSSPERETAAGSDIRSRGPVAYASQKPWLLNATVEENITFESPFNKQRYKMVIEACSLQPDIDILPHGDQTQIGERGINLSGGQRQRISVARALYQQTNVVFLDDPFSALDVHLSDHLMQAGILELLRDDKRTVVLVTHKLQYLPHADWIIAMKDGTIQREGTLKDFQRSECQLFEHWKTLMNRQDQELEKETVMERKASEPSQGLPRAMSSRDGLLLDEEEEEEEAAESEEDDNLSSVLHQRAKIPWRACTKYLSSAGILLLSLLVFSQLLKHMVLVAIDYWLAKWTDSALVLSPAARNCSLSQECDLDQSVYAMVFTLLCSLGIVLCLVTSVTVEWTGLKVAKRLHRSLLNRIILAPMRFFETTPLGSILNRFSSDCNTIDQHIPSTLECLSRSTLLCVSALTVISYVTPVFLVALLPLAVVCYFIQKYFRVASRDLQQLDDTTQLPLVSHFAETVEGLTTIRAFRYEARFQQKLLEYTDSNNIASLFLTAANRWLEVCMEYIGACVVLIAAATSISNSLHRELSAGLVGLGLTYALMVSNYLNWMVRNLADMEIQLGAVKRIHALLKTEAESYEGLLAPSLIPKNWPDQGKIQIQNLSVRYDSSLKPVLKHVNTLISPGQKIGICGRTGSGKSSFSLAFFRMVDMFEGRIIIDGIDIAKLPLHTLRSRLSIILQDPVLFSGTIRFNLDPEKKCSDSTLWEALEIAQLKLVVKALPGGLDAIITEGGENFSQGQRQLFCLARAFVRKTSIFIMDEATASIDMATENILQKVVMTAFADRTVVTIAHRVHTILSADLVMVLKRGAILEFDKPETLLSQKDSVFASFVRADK
Calcium Channel L-Type, Dihydropyridine, sequence (P22002 whole entry): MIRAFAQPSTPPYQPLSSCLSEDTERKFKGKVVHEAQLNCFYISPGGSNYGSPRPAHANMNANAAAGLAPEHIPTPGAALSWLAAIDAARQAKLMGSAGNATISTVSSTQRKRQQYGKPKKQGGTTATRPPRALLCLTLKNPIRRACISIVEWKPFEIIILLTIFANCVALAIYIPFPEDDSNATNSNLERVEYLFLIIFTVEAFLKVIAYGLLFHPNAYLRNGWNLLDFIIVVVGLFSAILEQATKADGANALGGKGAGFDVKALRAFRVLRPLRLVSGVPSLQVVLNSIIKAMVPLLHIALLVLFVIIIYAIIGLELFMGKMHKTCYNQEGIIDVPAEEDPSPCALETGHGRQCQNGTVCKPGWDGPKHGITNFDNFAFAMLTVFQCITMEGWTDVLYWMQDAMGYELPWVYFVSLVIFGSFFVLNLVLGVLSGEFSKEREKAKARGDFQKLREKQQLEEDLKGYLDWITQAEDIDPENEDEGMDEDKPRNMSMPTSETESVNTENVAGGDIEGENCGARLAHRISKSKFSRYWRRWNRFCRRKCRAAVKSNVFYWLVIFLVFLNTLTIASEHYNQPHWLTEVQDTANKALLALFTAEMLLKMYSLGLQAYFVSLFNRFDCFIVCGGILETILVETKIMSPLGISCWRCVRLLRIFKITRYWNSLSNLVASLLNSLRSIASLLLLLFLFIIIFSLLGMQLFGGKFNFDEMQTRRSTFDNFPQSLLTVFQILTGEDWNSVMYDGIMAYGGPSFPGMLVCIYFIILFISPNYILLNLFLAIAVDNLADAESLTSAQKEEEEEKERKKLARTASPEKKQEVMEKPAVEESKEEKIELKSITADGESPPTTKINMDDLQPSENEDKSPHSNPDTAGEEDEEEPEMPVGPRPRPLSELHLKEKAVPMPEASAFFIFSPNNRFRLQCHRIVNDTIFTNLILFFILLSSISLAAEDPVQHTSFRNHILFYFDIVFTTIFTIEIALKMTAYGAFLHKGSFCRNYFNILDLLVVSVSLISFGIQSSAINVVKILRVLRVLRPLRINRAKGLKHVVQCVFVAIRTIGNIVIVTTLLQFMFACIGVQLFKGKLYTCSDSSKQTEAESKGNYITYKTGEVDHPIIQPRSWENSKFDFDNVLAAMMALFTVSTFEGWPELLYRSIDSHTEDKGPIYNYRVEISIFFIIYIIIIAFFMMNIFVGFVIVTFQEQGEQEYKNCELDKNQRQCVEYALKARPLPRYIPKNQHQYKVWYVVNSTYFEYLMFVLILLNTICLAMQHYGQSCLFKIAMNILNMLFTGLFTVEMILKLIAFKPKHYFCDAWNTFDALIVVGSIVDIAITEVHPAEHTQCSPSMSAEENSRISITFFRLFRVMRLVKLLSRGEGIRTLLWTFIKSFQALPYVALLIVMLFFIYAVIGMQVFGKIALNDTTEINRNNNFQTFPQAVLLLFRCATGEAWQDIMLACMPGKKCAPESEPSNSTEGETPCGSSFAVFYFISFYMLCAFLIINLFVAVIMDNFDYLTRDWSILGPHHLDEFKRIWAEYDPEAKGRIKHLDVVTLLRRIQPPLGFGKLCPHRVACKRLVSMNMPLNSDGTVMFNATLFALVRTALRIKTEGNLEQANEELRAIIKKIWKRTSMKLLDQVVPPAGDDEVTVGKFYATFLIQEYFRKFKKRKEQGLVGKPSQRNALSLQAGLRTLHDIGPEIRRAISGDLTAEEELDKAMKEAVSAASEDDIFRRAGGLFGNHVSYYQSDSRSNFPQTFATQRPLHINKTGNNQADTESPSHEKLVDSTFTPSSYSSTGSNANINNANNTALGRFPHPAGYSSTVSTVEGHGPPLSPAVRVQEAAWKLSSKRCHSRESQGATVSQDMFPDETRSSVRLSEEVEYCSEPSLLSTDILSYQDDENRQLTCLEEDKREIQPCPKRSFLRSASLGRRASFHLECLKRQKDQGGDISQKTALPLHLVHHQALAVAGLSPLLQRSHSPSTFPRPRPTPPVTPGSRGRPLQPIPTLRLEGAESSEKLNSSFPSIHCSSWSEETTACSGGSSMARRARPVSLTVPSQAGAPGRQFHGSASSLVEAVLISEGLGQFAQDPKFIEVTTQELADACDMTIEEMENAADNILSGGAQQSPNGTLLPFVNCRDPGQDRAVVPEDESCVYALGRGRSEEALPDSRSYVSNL
hERG potassium channel, sequence (Q12809 whole entry): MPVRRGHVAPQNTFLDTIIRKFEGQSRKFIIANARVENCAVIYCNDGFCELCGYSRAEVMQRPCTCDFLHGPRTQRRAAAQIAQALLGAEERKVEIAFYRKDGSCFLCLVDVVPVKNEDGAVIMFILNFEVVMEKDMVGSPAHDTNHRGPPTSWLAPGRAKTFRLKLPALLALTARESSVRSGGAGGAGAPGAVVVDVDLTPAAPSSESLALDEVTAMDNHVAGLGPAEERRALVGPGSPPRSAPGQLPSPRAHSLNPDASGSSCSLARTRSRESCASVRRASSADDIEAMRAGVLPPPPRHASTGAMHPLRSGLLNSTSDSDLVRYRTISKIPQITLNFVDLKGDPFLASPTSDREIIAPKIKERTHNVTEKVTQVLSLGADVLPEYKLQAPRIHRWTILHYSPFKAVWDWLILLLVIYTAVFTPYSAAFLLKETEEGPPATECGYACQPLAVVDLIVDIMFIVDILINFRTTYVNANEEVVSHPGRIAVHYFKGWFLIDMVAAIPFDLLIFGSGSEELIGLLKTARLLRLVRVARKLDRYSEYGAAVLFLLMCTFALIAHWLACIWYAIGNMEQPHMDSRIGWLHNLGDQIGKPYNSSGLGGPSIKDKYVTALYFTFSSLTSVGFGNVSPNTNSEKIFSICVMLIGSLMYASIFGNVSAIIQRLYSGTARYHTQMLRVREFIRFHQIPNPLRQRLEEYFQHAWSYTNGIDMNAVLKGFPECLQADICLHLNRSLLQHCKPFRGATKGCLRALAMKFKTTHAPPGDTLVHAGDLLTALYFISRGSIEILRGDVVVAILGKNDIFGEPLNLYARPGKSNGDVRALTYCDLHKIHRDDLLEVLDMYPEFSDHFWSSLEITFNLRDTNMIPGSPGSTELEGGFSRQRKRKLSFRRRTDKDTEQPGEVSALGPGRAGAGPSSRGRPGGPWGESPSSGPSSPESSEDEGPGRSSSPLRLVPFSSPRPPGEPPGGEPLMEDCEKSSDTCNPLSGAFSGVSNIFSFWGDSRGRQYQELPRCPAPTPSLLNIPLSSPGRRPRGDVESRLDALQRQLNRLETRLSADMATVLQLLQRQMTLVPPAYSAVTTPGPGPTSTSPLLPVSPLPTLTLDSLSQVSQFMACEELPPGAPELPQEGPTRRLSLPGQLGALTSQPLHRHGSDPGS

Compound: O=C(NCc1ccc(OC(F)(F)F)cc1F)c1ccc2ncnn2c1 [ONO-2920632]
- inhibition at 10 µM (Interleukin IL-1 R1): -1%
- % Inhibition at 10 µM (Glutamate, NMDA, Agonism): 2%
- inhibition at 10 µM (hERG potassium channel): 39%
- inhibition at 10 µM (Histamine H1): 12%
- inhibition at 10 µM (Histamine H3): 4%
- inhibition at 10 µM (Potassium Channel [KATP]): -6%
- inhibition at 10 µM (Muscarinic M3): 7%
- inhibition at 10 µM (Adrenergic α1A): 40%
- % Inhibition at 10 µM (Thyroid Hormone): 3%
- inhibition at 10 µM [1]: 76%
- inhibition at 10 µM (Dopamine D3): 12%
- inhibition at 10 µM (Dopamine D1): 8%
- inhibition at 10 µM (Adenosine A2A): 3%
- inhibition at 10 µM (Opiate δ1 (OP1, DOP)): -8%
- inhibition at 10 µM (Adrenergic β2): 4%
- inhibition at 10 µM (Cannabinoid CB1): -23%
- inhibition at 10 µM (Calcium Channel N-Type): 4%

Compound: Cc1cc(C#Cc2ccc(F)cc2)cnc1NC(=O)c1cc(NC(=O)OC(C)(C)C)ccc1Cl [Compound 14c]
- minimum effective dose (MED) (male CD-1 mice): 10 mg/kg
- brain homogenate binding rat [2]: > 99.9%
- fraction unbound at 6 h, 5 µM [3]: 0.016
- solubility (Aqueous solubility): < 5 µM
- fraction unbound at 6 h, 5 µM [4]: 0.001
- % at 10 μM, Nav1.5 (Nav1.5): < 50%
- % at 10 μM, Cav1.2 (Cav1.2): < 50%
